Where a name gives a salt, the structure may show the parent alone.

Holding throughout (assay type): physicochemical
Data set [1] is described as follows: Dynamic vapor adsorption/desorption analysis. Particulars: for change of crystal form with the change of humidity / weight change according to the change of external humidity: 5˜95% RH; for weight change according to the change of external humidity: 25° C. On the procedure:
The dynamic vapor adsorption/desorption data were collected on VTI-SA Vapor Sorption Analyzer. While maintaining 25° C., the vapor adsorption and desorption were repeated three times at intervals of 5% RH in the range of relative humidity (RH) 5˜95%. The samples were not dried prior to the analysis. The equilibrium standard used for analysis was that the weight change within 2 minutes is less than 0.01%.

The nature of data set [2]: Thermal stability of the crystal form I and II, HPLC analysis. On the procedure: After 2 weeks, 4 weeks and 8 weeks, each sample was removed from Duma bottle and analyzed by XRD for identifying any change of the crystal form and HPLC for identifying the stability. For HPLC analysis the sample was dissolved in a mixture of acetonitrile/water/trifluoroacetic acid=30/70/0.1 (v/v/v) and then subjected to the analysis. The conditions for HPLC analysis are as follows:
Column: Atlantis dC18 (4.6 mm I.D×250 mm L, Particle Size 5, μm, Waters)
Column Temperature: 10° C.
Mobile phase A: MeCN/TFA=100/0.1 (v/v)
Mobile phase B: H2O/TFA=100/0.1 (v/v)
Total analysis time: 55 min.

Data set [3] can be described thus: Thermal stability of the crystal form I and II, XRD analysis for change of crystal form. On the procedure: About 20 mg of the sample was charged in the sample holder and mounted on Powder X-ray diffractometer to obtain the diffraction pattern in the range of 3˜40°/2θ. The diffraction patterns as obtained are attached to the present specification as FIGS. 1, 5 and 10, respectively. Specific conditions for analysis are as follows.
After 2 weeks, 4 weeks and 8 weeks, each sample was removed from Duma bottle and analyzed by XRD for identifying any change of the crystal form and HPLC for identifying the stability. For HPLC analysis the sample was dissolved in a mixture of acetonitrile/water/trifluoroacetic acid=30/70/0.1 (v/v/v) and then subjected to the analysis.

Data set [4] is described as follows: Determination of density (bulk-density, tap-density, Carr index). Particulars: for Bulk-density: 50 ml measuring cylinder; for Tap-density: ERWEKA densitometer, impulses 250 times. As for the experimental part:
Here, the samples were slowly introduced so that they are not closely contacted with each other. After reading a scale on the measuring cylinder, the weight thereof was measured to calculate the bulk-density. After measuring the bulk-density, the measuring cylinder containing the sample was put on ERWEKA densitometer and then subjected to impulses 250 times to measure the tapdensity (Table 5). […] The Can index was calculated from the bulk-density and the tap-density. […] Since it is generally understood that the lower the Carr index, the better the flowability, it could be identified by comparing the Carr indexes that the crystal form I can be easily handled in processing procedures including tabletting as compared to the crystal form II.

The nature of data set [5]: Powder X-ray diffraction test and weight change of the crystal form III during moisture adsorption at room temperature under atmosphere. As for the experimental part:
The crystal form III was placed on a XRD holder and subjected to XRD test over the time (after 30 minutes, 1 hour and 5 hours) while allowing the moisture adsorption at room temperature under atmosphere (see FIG. 15). In addition, the weight change at room temperature under atmosphere was recorded by times to obtain a graph (see FIG. 14).

In the case of `N[C@@H](CC(=O)N1CCc2c(nc(C(F)(F)F)nc2C(F)(F)F)C1)CN1CC(F)(F)CCC1=O` [crystal form I, 1-{(2S)-2-amino-4-[2,4-bis(trifluoromethyl)-5,8-dihydropyrido[3,4-d]pyrimidin-7(6H)-yl]-4-oxo-butyl}-5,5-difluoropiperidin-2-one tartrate], the “change of crystal form with the change of humidity” value in data set [1] is on record as “not changed”. Besides, the “weight change according to the change of external humidity” value (shortened to “weight change according to the change”) in data set [1] was no more than 0.8%. The stability (HPLC) is 99.4% in data set [2] (40° C./75% RH, 0 week); 99.3% in data set [2] (40° C./75% RH, 2 weeks); 99.2% in data set [2] (40° C./75% RH, 4 weeks); 99.2% in data set [2] (40° C./75% RH, 8 weeks); 99.4% in data set [2] (60° C./5% RH, 0 week); 98.8% in data set [2] (60° C./5% RH, 2 weeks). The stability (HPLC) in data set [2] (60° C./5% RH, 4 weeks) was 98.6%; in data set [2] (60° C./5% RH, 8 weeks), 98.4%. In addition, the “change of the crystal form by XRD analysis” value in data set [3] (40±2° C., 75±5% RH or 60±2° C., 5±5% RH, up to 8 weeks) is on record as “did not show any change”. Moreover, in data set [4], the Bulk-density is 0.45 g/mL. This molecule also returned a Tap-density in data set [4] of 0.54 g/mL.

On to `N[C@@H](CC(=O)N1CCc2c(nc(C(F)(F)F)nc2C(F)(F)F)C1)CN1CC(F)(F)CCC1=O.O=C(O)C(O)C(O)C(=O)O` [crystal form III], for which the “weight change according to the change” value in data set [1] is given as no less than 3.5%. Also, the “moisture desorption on decreasing the humidity” value in data set [1] (after adsorption up to 95% RH) is given as no more than 0.6%. Further, in data set [5], the “time to conversion into the crystal form I” value is given as “within about one hour”.

With `N[C@@H](CC(=O)N1CCc2c(nc(C(F)(F)F)nc2C(F)(F)F)C1)CN1CC(F)(F)CCC1=O.N[C@@H](CC(=O)N1CCc2c(nc(C(F)(F)F)nc2C(F)(F)F)C1)CN1CC(F)(F)CCC1=O.O.O=C(O)C(O)C(O)C(=O)O.O=C(O)C(O)C(O)C(=O)O` [crystal form II], the “change of crystal form with the change of humidity” value in data set [1] is listed as “converted into the crystal form I”. In addition, the “weight change according to the change” value in data set [1] is no less than 4.0%. Further, in data set [1] (moisture adsorption, 75% RH), the “weight increase at 75% RH” value was determined as 3.7%. For the same molecule, the stability (HPLC) in data set [2] (40° C./75% RH, 0 week) amounted to 98.4%; in data set [2] (40° C./75% RH, 2 weeks), 98.4%; in data set [2] (40° C./75% RH, 4 weeks), 98.3%; in data set [2] (40° C./75% RH, 8 weeks) it was 98.2%; in data set [2] (60° C./5% RH, 0 week) it was 98.4%; in data set [2] (60° C./5% RH, 2 weeks), 98.1%. In addition, the stability (HPLC) in data set [2] (60° C./5% RH, 4 weeks) was found to be 97.8%; in data set [2] (60° C./5% RH, 8 weeks) it was 97.5%. Besides, the “time to conversion into the crystal form I in the accelerating stability test” value in data set [3] (40° C./75% RH) was no more than 8 weeks. Further, the “change of the crystal form by XRD analysis” value in data set [3] (40° C./75% RH, at 8 week) was “converted into the crystal form I”. The Bulk-density in data set [4] was 0.34 g/mL. Also, in data set [4], the Tap-density came to 0.44 g/mL.

For the origin of these results see patent publication US8859567B2, “Hydrate of 1-{(2S)-2-amino-4-[2,4-bis(trifluoromethyl)-5,8-di-hydropyrido[3,4-D]pyrimidin-7(6H)-yl]-4-oxobutyl}-5,5-difluoro-piperidin-2-one tartrate” (LG Life Sciences Ltd., priority 2010, dated 2014).
